Assay results published in patent publication US11484543B2, “Compositions and methods for diagnosing and treating diseases and disorders associated with mutant KCNJ5” (The Rockefeller University, priority 2017, dated 2022).
Where a chain is given by its changes, count along the chain named. Like-named read-outs stand apart in the source and are kept apart here.

Assays:
KCNJ5^L168R = target: T1, KCNJ5^L168R (Homo sapiens, UniProt P48544, L168R); test: Cell viability assay (ATP, CellTiter-Glo): rescue of KCNJ5^L168R-induced lethality in inducible HEK293 cells; format: cell-based
T1 construct: expressed in transfected cells
T1 sequence (P48544 1-419 L168R): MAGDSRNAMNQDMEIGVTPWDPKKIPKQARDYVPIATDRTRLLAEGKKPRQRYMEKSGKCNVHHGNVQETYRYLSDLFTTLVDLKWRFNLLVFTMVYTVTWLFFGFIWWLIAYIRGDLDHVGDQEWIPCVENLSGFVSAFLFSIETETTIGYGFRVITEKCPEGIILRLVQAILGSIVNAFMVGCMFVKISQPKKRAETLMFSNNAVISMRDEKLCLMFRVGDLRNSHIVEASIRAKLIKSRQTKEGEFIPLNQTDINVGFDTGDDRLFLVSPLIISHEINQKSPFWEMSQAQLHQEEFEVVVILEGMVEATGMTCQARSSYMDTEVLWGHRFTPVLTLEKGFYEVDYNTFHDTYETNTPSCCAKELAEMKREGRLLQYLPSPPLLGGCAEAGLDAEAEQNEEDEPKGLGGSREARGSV

KCNJ5^G151R = target: T2, KCNJ5^G151R (Homo sapiens, UniProt P48544, G151R); test: cell-based; format: cell-based
T2 construct: expressed in transfected cells
T2 sequence (P48544 1-419 G151R): T1 sequence (P48544 1-419 L168R) with G151R, R168L
Method in brief: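 Viability is read as cellular ATP by CellTiter-Glo luminescence 72 h later at 37 °C. Uninduced and induced untreated cells set 100% and 0% effect; curves use a 4-parameter logistic fit.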

[1] = 10-point dilution 20 to 0.0391 μM, N=3, four-parameter fit
[2] = tested as in FIG. 7 (FIGS. 9 and 10)

Row | Compound | L168R maximum inhibition (KCNJ5^L168R; [1]) [%] | dose response on KCNJ5^L168R (KCNJ5^L168R; tested at 1.1, 3.3 and 10 μM) | G151R maximum inhibition (KCNJ5^G151R; [1]) [%] | G151R minimum inhibition (KCNJ5^G151R; [1]) [%] | viability at 10 µM (KCNJ5^G151R; HEK293, 72 h, mean of primary screen and hit pick, read-out: mean % effect) [%] | viability at 10 µM (KCNJ5^G151R; HEK293, ATP level 72 h after induction, uninduced = 100%, induced = 0% effect, first of the two runs (primary screen / hit pick), read-out: % effect (1)) [%] | viability at 10 µM (KCNJ5^G151R; HEK293, ATP level 72 h after induction, uninduced = 100%, induced = 0% effect, second of the two runs (primary screen / hit pick, confirmatory testing), read-out: % effect (2)) [%] | rescue of ATP level (KCNJ5^G151R; dose-response at 1.1, 3.3 and 10 μM) | inhibition of KCNJ5^MUT (structure-activity statement) (KCNJ5^G151R; macrolide series, dilution curves) | inhibition of KCNJ5^L168R by synthesized macrolide derivatives (KCNJ5^L168R; [2]) | inhibition of KCNJ5^G151R by synthesized macrolide derivatives (KCNJ5^G151R; [2])
1 | CC[C@H]1OC(=O)[C@H](C)[C@@H](O[C@H]2C[C@@](C)(OC)[C@@H](O)[C@H](C)O2)[C@H](C)[C@@H](O[C@@H]2O[C@H](C)C[C@H](N(C)C)[C@H]2O)[C@](C)(O)C[C@@H](C)/C(=N\OCOCCOC)[C@H](C)[C@@H](O)[C@]1(C)O [Roxithromycin, roxithromycin] | 81.39 | showed a dose response | 105.92 | 9.92 | 107 | 108 | 107 | virtually complete rescue of ATP level | potent effects | – | –
2 | N-demethyl-N-isobutyl-8,9-anhydroerythromycin A 6,9-hemiacetal [PLUX37] | – | – | – | – | – | – | – | – | – | significant inhibition | significant inhibition
